Earlier results, collected in patent publication US12016850B2, “Modified release pharmaceutical formulations comprising deferiprone” (Chiesi Farmaceutici S.p.A., priority 2022, dated 2024).

Conditions: background statement, species not given

Cc1c(O)c(=O)ccn1C [Deferiprone, 3-hydroxy-1,2-dimethylpyridin-4-one]
half-life: 2 to 3 h
